Laboratory results as given in ChEMBL document CHEMBL3739366, “Discovery of HTL6641, a dual orexin receptor antagonist with differentiated pharmacodynamic properties” (Medchemcomm, 2015).
Calls of active or inactive are those of the source. No cut-off for these calls is given here.

Columns and labels:
Cytochrome P450 2D6 = Cytochrome P450 2D6 (Homo sapiens, UniProt P10635); test: Inhibition of CYP2D6 (unknown origin); format: ADME
Rattus norvegicus [1] = test: AUC (infinity) in Sprague-Dawley rat at 2 mg/kg, po; format: ADME, organism-based; parameters: dose 2 mg/kg, route oral, time infinity; conditions: in vivo
Cytochrome P450 2C19 = Cytochrome P450 2C19 (Homo sapiens, UniProt P33261); test: Inhibition of CYP2C19 (unknown origin); format: ADME
Cytochrome P450 2C19, sequence (P33261 whole entry): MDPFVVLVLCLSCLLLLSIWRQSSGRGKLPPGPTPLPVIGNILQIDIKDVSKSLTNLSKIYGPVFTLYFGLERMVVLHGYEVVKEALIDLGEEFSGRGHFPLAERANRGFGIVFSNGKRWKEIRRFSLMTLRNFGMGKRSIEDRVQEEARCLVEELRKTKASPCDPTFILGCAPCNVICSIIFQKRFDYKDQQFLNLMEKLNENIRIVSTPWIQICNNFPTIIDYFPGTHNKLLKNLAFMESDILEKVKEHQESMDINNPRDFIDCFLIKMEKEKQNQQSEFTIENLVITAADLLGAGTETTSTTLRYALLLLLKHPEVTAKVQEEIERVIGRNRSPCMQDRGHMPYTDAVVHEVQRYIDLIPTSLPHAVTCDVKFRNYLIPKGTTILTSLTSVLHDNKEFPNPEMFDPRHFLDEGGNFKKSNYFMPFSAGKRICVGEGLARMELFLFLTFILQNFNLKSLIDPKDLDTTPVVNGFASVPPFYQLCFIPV

[2] = Oral bioavailability in Sprague-Dawley rat at 2 mg/kg; format: ADME, organism-based; conditions: in vivo
[3] = Oral bioavailability in beagle dog at 1 mg/kg; format: ADME, organism-based, Canis lupus familiaris; conditions: in vivo
[4] = Clearance in Sprague-Dawley rat at 1 mg/kg, iv; format: ADME, organism-based; conditions: in vivo
[5] = Plasma protein binding in human; format: ADME, cell-free; conditions: read-out: PPB (converted)
[6] = target: T1, Orexin/Hypocretin receptor type 1 (Homo sapiens) (UniProt O43613); conditions: CHO
T1 sequence (whole entry): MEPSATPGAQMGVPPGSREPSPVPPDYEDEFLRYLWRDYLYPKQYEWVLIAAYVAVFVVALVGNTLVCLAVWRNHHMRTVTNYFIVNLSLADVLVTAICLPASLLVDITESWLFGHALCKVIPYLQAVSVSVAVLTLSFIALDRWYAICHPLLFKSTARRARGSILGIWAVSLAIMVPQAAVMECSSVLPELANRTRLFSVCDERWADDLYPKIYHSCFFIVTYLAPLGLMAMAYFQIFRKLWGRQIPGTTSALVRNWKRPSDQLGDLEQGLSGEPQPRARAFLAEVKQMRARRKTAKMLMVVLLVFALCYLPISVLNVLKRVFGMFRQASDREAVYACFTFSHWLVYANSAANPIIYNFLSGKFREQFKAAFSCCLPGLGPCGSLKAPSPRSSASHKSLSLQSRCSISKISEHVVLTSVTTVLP
Description: Antagonist activity at human orexin receptor-1 expressed in CHO cells assessed as orexin-A-induced ERK1/2 phosphorylation after 2 hrs by fluorescence assay

Cytochrome P450 1A2 = target: T2, Cytochrome P450 1A2 (Homo sapiens, UniProt P05177); test: Inhibition of CYP1A2 (unknown origin); format: ADME
T2 sequence (P05177 whole entry): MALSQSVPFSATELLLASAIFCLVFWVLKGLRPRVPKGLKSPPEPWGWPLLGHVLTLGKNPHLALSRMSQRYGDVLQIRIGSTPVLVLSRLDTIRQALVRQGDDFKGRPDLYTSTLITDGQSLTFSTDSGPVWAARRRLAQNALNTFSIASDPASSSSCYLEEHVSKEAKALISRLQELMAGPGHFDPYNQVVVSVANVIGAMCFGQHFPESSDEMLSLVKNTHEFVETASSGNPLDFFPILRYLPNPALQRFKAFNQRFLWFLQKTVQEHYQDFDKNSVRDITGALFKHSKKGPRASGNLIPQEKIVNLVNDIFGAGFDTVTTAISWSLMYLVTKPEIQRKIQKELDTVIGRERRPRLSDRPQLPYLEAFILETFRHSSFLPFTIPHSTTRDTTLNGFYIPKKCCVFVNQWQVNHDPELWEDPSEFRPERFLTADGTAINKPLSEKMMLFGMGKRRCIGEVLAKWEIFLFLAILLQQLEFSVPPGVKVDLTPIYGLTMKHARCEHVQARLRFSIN

[7] = Half life in cynomolgus monkey hepatocytes; format: ADME, cell-based, Macaca fascicularis, Hepatocyte
Cytochrome P450 2C9 = Cytochrome P450 2C9 (Homo sapiens, UniProt P11712); test: Inhibition of CYP2C9 (unknown origin); format: ADME
Cytochrome P450 2C9, sequence (P11712 whole entry): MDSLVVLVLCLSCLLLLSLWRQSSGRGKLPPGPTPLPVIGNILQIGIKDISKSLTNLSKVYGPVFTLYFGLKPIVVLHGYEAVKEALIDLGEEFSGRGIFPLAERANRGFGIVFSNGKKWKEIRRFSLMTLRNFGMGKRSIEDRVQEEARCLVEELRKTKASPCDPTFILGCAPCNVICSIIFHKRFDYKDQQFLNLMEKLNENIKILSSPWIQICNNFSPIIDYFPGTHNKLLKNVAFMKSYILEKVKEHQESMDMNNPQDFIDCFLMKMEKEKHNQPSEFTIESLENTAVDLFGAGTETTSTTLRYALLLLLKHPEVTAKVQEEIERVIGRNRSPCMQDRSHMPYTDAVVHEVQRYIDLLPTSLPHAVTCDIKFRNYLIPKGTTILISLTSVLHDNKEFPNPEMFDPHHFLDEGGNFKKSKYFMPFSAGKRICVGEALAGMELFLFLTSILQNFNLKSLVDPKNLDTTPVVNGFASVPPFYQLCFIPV

[8] = Half life in rat hepatocytes; format: ADME, cell-based, Hepatocyte
Canis familiaris = test: AUC (infinity) in beagle dog at 1 mg/kg, po; format: ADME, organism-based, Canis lupus familiaris; parameters: dose 1 mg/kg, route oral, time infinity; conditions: in vivo
Rattus norvegicus [9] = test: Antiinsomnic activity in CD1 rat assessed as increase of REM sleep at 3 mg/kg, po administered at circadian time 18 hrs measured after 3 hrs; format: functional
[10] = Half life in human hepatocytes; format: ADME, cell-based, Hepatocyte
[11] = Plasma concentration in Sprague-Dawley rat plasma at 1 mg/kg, po after 1 hr; format: ADME, organism-based
[12] = target: T3, Orexin receptor type 2 (Homo sapiens) (UniProt O43614); conditions: CHO
T3 sequence (whole entry): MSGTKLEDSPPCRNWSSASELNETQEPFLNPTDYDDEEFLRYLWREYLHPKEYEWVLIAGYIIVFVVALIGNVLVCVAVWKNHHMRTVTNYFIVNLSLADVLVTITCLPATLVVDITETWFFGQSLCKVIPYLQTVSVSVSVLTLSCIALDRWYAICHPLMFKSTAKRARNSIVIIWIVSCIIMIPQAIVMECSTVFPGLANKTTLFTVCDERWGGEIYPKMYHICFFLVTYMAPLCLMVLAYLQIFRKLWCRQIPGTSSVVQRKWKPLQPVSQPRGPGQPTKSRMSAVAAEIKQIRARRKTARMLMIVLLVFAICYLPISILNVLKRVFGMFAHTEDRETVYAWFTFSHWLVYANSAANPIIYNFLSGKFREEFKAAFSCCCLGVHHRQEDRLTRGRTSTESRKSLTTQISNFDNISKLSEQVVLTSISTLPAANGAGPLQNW
Description: Antagonist activity at human orexin receptor-2 expressed in CHO cells assessed as orexin-A-induced ERK1/2 phosphorylation after 2 hrs by fluorescence assay

[13] = target: T3, Orexin receptor type 2 (Homo sapiens)
Description: Binding affinity to orexin receptor-2 (unknown origin) assessed as dissociation half-life by SPR assay

[14] = Half life in dog hepatocytes; format: ADME, cell-based, Canis lupus familiaris, Hepatocyte
Rattus norvegicus [15] = test: Ex-vivo receptor occupancy of orexin receptor-2 Sprague-Dawley rat frontal cortex using [3H]EMPA at 1 mg/kg, po after 1 hr by autoradiography relative to control; format: functional
[16] = Mean residence time in beagle dog; format: ADME, organism-based, Canis lupus familiaris; conditions: in vivo
Rattus norvegicus [17] = test: Effect on latency to first NREM episode CD1 rat assessed as reduction of at 3 and 10 mg/kg, po administered at circadian time 18 hrs; format: ADME, organism-based; conditions: in vivo
Rattus norvegicus [18] = test: Antiinsomnic activity in CD1 rat assessed as increase of NREM sleep at 3 mg/kg, po administered at circadian time 18 hrs measured after 3 hrs; format: functional
Rattus norvegicus [19] = test: Antiinsomnic activity in CD1 rat assessed as hypnotic effect at 3 to 10 mg/kg, po administered at circadian time 18 hrs measured after 2 to 3 hrs; format: functional, organism-based
[20] = Efflux ratio of the compound in human Caco2 cells; format: ADME, cell-based; conditions: Caco-2
Rattus norvegicus [21] = test: Antiinsomnic activity in CD1 rat assessed as reduction of time spent awake at 3 to 10 mg/kg, po administered at circadian time 18 hrs measured after 3 hrs; format: functional; parameters: scale not given: the % may be the effect or the level left
[22] = Ratio of drug level in cerebrospinal fluid to brain in Sprague-Dawley rat at 1 mg/kg, iv after 0.5 hrs; format: ADME, organism-based, CSF/Brain; conditions: in vivo
[23] = target: T3, Orexin receptor type 2 (Homo sapiens); remark: listed apart in the source
Description: Binding affinity to orexin receptor-2 (unknown origin) assessed as dissociation half-life by Motulsky-Mahan radioligand binding assay

Salmonella typhimurium = test: Genotoxicity in Salmonella typhimurium by Ames test in absence of S9 fraction; format: toxicity, organism-based; conditions: salmonella enterica subsp. enterica serovar typhimurium
Rattus norvegicus [24] = test: Antiinsomnic activity in CD1 rat assessed as increase of NREM sleep at 10 mg/kg, po administered at circadian time 18 hrs measured after 3 hrs; format: functional
[25] = Plasma protein binding in dog; format: ADME, cell-free, Canis lupus familiaris; conditions: read-out: PPB (converted)
[26] = Mean residence time in Sprague-Dawley rat; format: ADME, organism-based; conditions: in vivo
Rattus norvegicus [27] = test: Antiinsomnic activity in CD1 rat assessed as increase of promoted sleep at 3 to 10 mg/kg, po administered at circadian time 18 hrs measured after 3 hrs; format: functional

Cytochrome P450 2D6, sequence (P10635 whole entry): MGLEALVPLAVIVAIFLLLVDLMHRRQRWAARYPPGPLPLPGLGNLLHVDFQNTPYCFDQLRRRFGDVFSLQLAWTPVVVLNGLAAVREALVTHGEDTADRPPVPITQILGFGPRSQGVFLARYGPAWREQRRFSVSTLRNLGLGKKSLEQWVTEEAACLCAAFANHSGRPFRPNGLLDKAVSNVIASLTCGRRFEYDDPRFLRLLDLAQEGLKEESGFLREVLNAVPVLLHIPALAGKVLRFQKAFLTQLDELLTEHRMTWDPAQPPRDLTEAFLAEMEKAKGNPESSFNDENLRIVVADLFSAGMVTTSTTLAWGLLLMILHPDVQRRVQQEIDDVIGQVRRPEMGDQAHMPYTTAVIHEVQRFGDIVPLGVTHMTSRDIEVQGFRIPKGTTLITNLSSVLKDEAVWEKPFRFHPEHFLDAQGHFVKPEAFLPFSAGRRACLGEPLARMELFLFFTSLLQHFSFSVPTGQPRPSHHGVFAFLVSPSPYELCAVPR

With `COc1cc(N2C(=O)N(Cc3c(F)cc(F)cc3F)c3ncccc3S2(=O)=O)cnc1OC` the IC50 (Cytochrome P450 2D6) was over 10 µM, the AUC (Rattus norvegicus [1]) was 1220 ng·h/mL and the IC50 (Cytochrome P450 2C19) was over 10 µM. It also gave a bioavailability [2] of 66%, a bioavailability [3] of 70% and a clearance [4] of 18 mL/min/kg. The fraction unbound [5] was 0.007, the pKb [6] was 6.6 and the IC50 (Cytochrome P450 1A2) was over 10 µM. The half-life [7] was over 4.17 h, the IC50 (Cytochrome P450 2C9) was over 10 µM and the half-life [8] was over 1.83 h. It also gave an AUC (Canis familiaris) of 2440 ng·h/mL, an Activity (Rattus norvegicus [9]) of 70.6% and a half-life [10] of over 4.17 h. The concentration at 1 h [11] was 72 ng/mL, the pKb [12] was 7.3 and the T1/2 [13] was 4.2 min. It also gave a half-life [14] of over 1.83 h, an Occ (Rattus norvegicus [15]) of 57% and an MRT [16] of 4 h. The Activity (Rattus norvegicus [17]) was “Non-toxic”, the Activity (Rattus norvegicus [18]) was 28.8% and the Activity (Rattus norvegicus [19]) was “Active”. The efflux ratio [20] was 0.7, the Activity (Rattus norvegicus [21]) was 18.5% and the Ratio [22] was 0.01. The T1/2 [23] was 7.6 min, the Activity (Salmonella typhimurium) was “Non-toxic” and the Activity (Rattus norvegicus [24]) was 30.7%. It also gave a fraction unbound [25] of 0.019, an MRT [26] of 1.9 h and an Activity (Rattus norvegicus [27]) of 17.4%.
